This is an account of results in patent publication US6083932A, “Pharmaceutical compositions derived from ginseng and methods of treatment using same” (CV Technologies Inc., priority 1998, dated 2000).

This assay relates to choline uptake in rat brain synaptomes. In words: choline uptake in rat brain synaptosomes (Example 2). The class given is biochemical. The following applies: mean ± SE, n = 4. From the text:
Example 2 is a comparison of several batches of Rb1 extract, an extract of total ginsenosides (TS) containing 25% Rb1, 19.4% Rc1 and 21.6% Rg1+Re, and HT1001 on choline uptake in rat brain synaptomes. The Rb1 tested had greater than 98% purity. Rb1-52, Rb1-53 and Rb1-54 represent three different batches of Rb1.

In the case of `CC(C)=CCC[C@](C)(O[C@@H]1O[C@H](CO[C@@H]2O[C@H](CO)[C@@H](O)[C@H](O)[C@H]2O)[C@@H](O)[C@H](O)[C@H]1O)[C@H]1CC[C@]2(C)[C@@H]1[C@H](O)C[C@@H]1[C@@]3(C)CC[C@H](O[C@@H]4O[C@H](CO)[C@@H](O)[C@H](O)[C@H]4O[C@@H]4O[C@H](CO)[C@@H](O)[C@H](O)[C@H]4O)C(C)(C)[C@@H]3CC[C@]12C` [Rb1-52, ginsenoside Rb1], the choline uptake runs as follows: (0.0011 mg/l) 108 ± 5.7 % of control; (0.011 mg/l) 108 ± 4.4 % of control; (0.11 mg/l) 108 ± 5.8 % of control; (1.1 mg/l) 109 ± 5.4 % of control; (11 mg/l) 111 ± 3.7 % of control.

As for `CC(C)=CCC[C@](C)(O[C@@H]1O[C@H](CO[C@@H]2O[C@H](CO)[C@@H](O)[C@H](O)[C@H]2O)[C@@H](O)[C@H](O)[C@H]1O)[C@H]1CC[C@]2(C)[C@@H]1[C@H](O)C[C@@H]1[C@@]3(C)CC[C@H](O[C@@H]4O[C@H](CO)[C@@H](O)[C@H](O)[C@H]4O[C@@H]4O[C@H](CO)[C@@H](O)[C@H](O)[C@H]4O)C(C)(C)[C@@H]3CC[C@]12C` [Rb1-54, ginsenoside Rb1], the choline uptake runs as follows: (0.0011 mg/l) 108 ± 3 % of control; (0.011 mg/l) 110 ± 3.4 % of control; (0.11 mg/l) 110 ± 2.6 % of control; (1.1 mg/l) 112 ± 1.2 % of control; (11 mg/l) 111 ± 2.6 % of control.

Regarding `CC(C)=CCC[C@](C)(O[C@@H]1O[C@H](CO[C@@H]2O[C@H](CO)[C@@H](O)[C@H](O)[C@H]2O)[C@@H](O)[C@H](O)[C@H]1O)[C@H]1CC[C@]2(C)[C@@H]1[C@H](O)C[C@@H]1[C@@]3(C)CC[C@H](O[C@@H]4O[C@H](CO)[C@@H](O)[C@H](O)[C@H]4O[C@@H]4O[C@H](CO)[C@@H](O)[C@H](O)[C@H]4O)C(C)(C)[C@@H]3CC[C@]12C` [Rb1-53, ginsenoside Rb1], the choline uptake is, setting by setting: (0.0011 mg/l) 106 ± 1.3 % of control; (0.011 mg/l) 109 ± 3.6 % of control; (0.11 mg/l) 109 ± 3.8 % of control; (1.1 mg/l) 112 ± 4.8 % of control; (11 mg/l) 114 ± 2.5 % of control.
